The test system of this experiment is SH-SY5Y nerve cells. The experiment can be described thus: Protective effect against MPP+ induced SH-SY5Y nerve cell injury (MTT cell viability). Format: cell-based. The settings on record: 500 μM MPP+; for protective effect against MPP+ induced SH-SY5Y nerve cell injury: 24 h pre-protection + 24 h co-incubation, MTT, overall statement. The method, then:
SH-SY5Y nerve cells were purchased from ATTC (American Type Culture Collection, Rockville, Md., U.S.A). The cells was cultured with RPMI1640 medium (a product of Hyclone Company) containing 10% fetal bovine serum, 2 mM/L glutamine, as well as 1% penicillium and streptomycin doubleantibiotics, in the incubator at 37° C. and 5% CO2.
The extract tested was the beautyberry total glycosides extract prepared in Example 5 which contained 37.75 wt % verbascoside and 28.01 wt % Arenarioside. The beautyberry total glycosides extract prepared in Example 5, and stock solutions of verbascoside and Arenarioside prepared in 2.1 above were dissolved and formulated respectively with phosphate buffer (PBS) and the resulted solutions were diluted to test concentrations with RPMI 1640 culture medium. MPP+ solution was prepared by dissolving MPP+ to 1 mM with PBS. The test concentration of MPP+ was 500 μM diluted with the culture medium. MTT was formulated with PBS, at a concentration of 0.5 mg/ml, and was filtered to remove bacteria using a 0.22 μm filter membrane prior to use.
SH-SY5Y nerve cells at a logarithmic growth phase were collected and counted with a cell counter. 200 μl of cell suspension with 4×10^4/ml was added into each well of the 96-well plate (converted to 8×10^3/200 μl of the culture medium) and was subjected to adherent culture in the incubator at 37° C. and 5% CO2 for 24 hours. The experiment included 11 groups: (1) a blank control group, wherein RPMI 1640 culture medium was used, and incubation at 5% CO2 and 37° C. was performed for 24 h; (2) a model group, wherein RPMI 1640 culture medium containing 500 μM MPP+ was used, and incubation at 5% CO2 and 37° C. was performed for 24 h; (3) a high dose group (16 μg/mL), a medium dose group (1.6 μg/mL), and a low dose group (0.16 μg/mL) (equivalent to 10 μM, 1 μM, and 0.1 μM verbascoside, respectively) of tests of the extract of Example 5 in the present invention; (4) a high dose group (10 μM), amedium dose group (1 μM), and a low dose group (0.1 μM) of theverbascoside monomer prepared above; and (5) a high dose group (10 μM), a medium dose group (1 μM), and a low dose group (0.1 μM) of the Arenarioside monomer prepared above; wherein, in each experimental dosage groups of (3), (4), and (5), mother liquid of the drug to be tested was firstly diluted to a set dosage concentration with the RPMI 1640 culture medium, then added at 100 μL into the cells, which were pre-protected at 5% CO2 and 37° C. for 24 h, then supernatant was carefully pipetted and discarded, then, mother liquid of the drug to be tested was diluted to a set dosage concentration with the RPMI 1640 culture medium containing 500 μM MPP+ that was formulated beforehand, then added at 100 μL into the cells, which were proceeded to incubation at 5% CO2 and 37° C. for 24 h. Supernatant was carefully pipetted and discarded, placed upside-down on an absorbent paper and patted dry. After the blank group and themodel group were incubated for 24 h, operations were performed using the same method. 5 parallel wells were provided for each group of the samples. MTT at a concentration of 0.5 mg/ml was added into each well of each group above, and incubated at 5% CO2 and 37° C. for 4 h. Supernatant was carefully pipetted and discarded, placed upside-down on an absorbent paper and patted dry. 200 μL of dimethyl sulfoxide (DMSO) was added into each well, and shaken for 300 s. The absorbance value of each well was determined at OD 570 nm, and cell viability was calculated according to the following formula: […]

Turning to `CC1O[C@@H](O[C@@H]2C(O)[C@H](OCCc3ccc(O)c(O)c3)OC(CO[C@@H]3OC[C@@H](O)[C@@H](O)C3O)[C@@H]2OC(=O)/C=C/c2ccc(O)c(O)c2)C(O)[C@@H](O)[C@H]1O` (stereo partly drawn) [Arenarioside], the “protective effect against MPP+ induced SH-SY5Y nerve cell injury” value is “has a protective effect”. Moreover, under “0.1 μM monomer”, the “cell viability compared with the model group” value is recorded as “significant higher cell viability as compared with the model group (p<0.01)”. Moreover, the “cell viability compared with the model group” value (1 μM monomer) was “significant higher cell viability as compared with the model group (p<0.01)”.

Turning to `C[C@@H]1O[C@@H](O[C@@H]2[C@@H](O)[C@H](OCCc3ccc(O)c(O)c3)O[C@H](CO)[C@H]2OC(=O)/C=C/c2ccc(O)c(O)c2)[C@H](O)[C@H](O)[C@H]1O` [verbascoside], the “protective effect against MPP+ induced SH-SY5Y nerve cell injury” value is listed as “has a protective effect”. Also, the “cell viability compared with the model group” value (0.1 μM monomer) is “significant difference compared to the model group (p<0.01)”. Further, the “cell viability compared with the model group” value (1 μM monomer) is recorded as “significant difference compared to the model group (p<0.01)”.

For the origin of these results see patent US10758585B2, “Beautyberry total glycosides extract and preparation method and use thereof” (Suzhou Neupharma Co., Ltd., priority 2012, dated 2020).
